Results published in EP0126580B1 (priority 1983, dated 1984).

Conditions: rat, in vivo

C[n+]1ccccc1/C=N/O [2-PAMCl, 2-pralidoxime chloride]
lethality: fatal to all rats | time in which the blood concentration drops below therapeutic level (TL): 2 to 3 h | time therapeutic plasma drug level maintained: 2-1/4 hours | time to death after injection: ≤ 30 min | blood drug level achieved (im): 20000 ng/mL
